Test: Antiproliferative activity against mouse EAC cells assessed as ratio of ID50 of compound to ID50 of 8-methoxypsoralen
Type: functional, Ehrlich

For `COc1c2oc(=O)c(C)cc2cc2c(C)coc12`, the Ratio was 0.89.

With `Cc1oc2cc3oc(=O)ccc3cc2c1C` the Ratio was 1.26.

`Cc1cc2cc3c(C)coc3c(C)c2oc1=O` gave a Ratio of 1.34.

With `Cc1oc2cc3oc(=O)c(C)cc3cc2c1C` the Ratio was 1.79.

`Cc1oc2ccc3ccc(=O)oc3c2c1C` gave a Ratio of 1.47.

With `Cc1cc2cc3c(C)coc3cc2oc1=O` the Ratio was 1.01.

`Cc1cc(=O)oc2nc3occc3cc12` gave a Ratio of 0.14.

`Cc1oc2nc3oc(=O)ccc3cc2c1C` showed a Ratio of 0.18.

With `Cc1coc2nc3oc(=O)ccc3cc12` the Ratio was 0.13.

Molecule `Cc1c(C)c2cc3c(C)coc3cc2oc1=O` has a Ratio of 0.34.

`COCc1cc(=O)n(C)c2c1cc(C)c1oc(C)cc12` showed a Ratio of 2.09.

`Cc1cc(=O)[nH]c2c1cc(C)c1occ(C)c12` showed a Ratio of 4.62.

For `O=C(c1cc2ccc3occc3c2oc1=O)N(CCO)CCO`, the Ratio was under 0.01.

In the case of `CN1CCN(C(=O)c2cc3ccc4occc4c3oc2=O)CC1`, the Ratio is reported as under 0.01.

Molecule `O=C(c1ccccc1)c1cc2ccc3occc3c2oc1=O` has a Ratio of under 0.01.

`CCN(CC)C(=O)c1cc2ccc3occc3c2oc1=O` showed a Ratio of under 0.01.

With `O=C(NCCO)c1cc2ccc3occc3c2oc1=O` the Ratio was under 0.01.

Work on `CCOCCNC(=O)c1cc2ccc3occc3c2oc1=O` yielded a Ratio of under 0.01.

`CN(C)CCNC(=O)c1cc2ccc3occc3c2oc1=O` showed a Ratio of under 0.01.

`NC(=O)c1cc2ccc3occc3c2oc1=O` gave a Ratio of 0.05.

`O=C(c1cc2ccc3occc3c2oc1=O)N1CCOCC1` gave a Ratio of 0.06.

In the case of `O=C(O)c1cc2ccc3occc3c2oc1=O`, the Ratio is reported as 0.07.

For `CN(C)C(=O)c1cc2ccc3occc3c2oc1=O`, the Ratio was 0.07.

With `COC(=O)c1cc2ccc3occc3c2oc1=O` the Ratio was 0.2.

With `Cc1cc(=O)oc2c1c(C)cc1occ(C)c12` the Ratio was 5.78.

In the case of `Cc1cc(=O)[nH]c2c1ccc1occ(C)c12`, the Ratio is reported as 0.48.

For `Cc1oc2nc3oc(=O)ccc3c(C)c2c1C`, the Ratio was 0.25.

For `Cc1c(C)c2cc3c(C)coc3nc2oc1=O`, the Ratio was 0.67.

`Cc1coc2nc3oc(=O)cc(C)c3cc12` gave a Ratio of 0.68.

For `Cc1coc2nc3oc(=O)ccc3c(C)c12`, the Ratio was 0.97.

With `Cc1oc2nc3oc(=O)c(C)c(C)c3cc2c1C` the Ratio was 1.83.

`Cc1cc2ccc3occc3c2oc1=O` showed a Ratio of 0.2.

`Cc1c(C)c2ccc3occ(C)c3c2oc1=O` showed a Ratio of 0.03.

`Cc1c(C)c2ccc3occc3c2oc1=O` showed a Ratio of 0.35.

For `CCOC(=O)c1cc2ccc3occc3c2oc1=O`, the Ratio was 0.4.

For `Cc1cc2c(o1)c(C)cc1c(CO)cc(=O)[nH]c12`, the Ratio was 0.66.

With `Cc1cc(=O)[nH]c2c1cc(C)c1oc(CO)c(C)c12` the Ratio was 1.07.

With `Cc1cc2c(o1)c(C)cc1c(C)cc(=O)[nH]c12` the Ratio was 1.36.

With `Cc1oc2nc3oc(=O)cc(C)c3cc2c1C` the Ratio was 3.66.

Molecule `CC(=O)c1cc2ccc3occc3c2oc1=O` has a Ratio of under 0.01.

Molecule `COCc1c(C)oc2ccc3c(C)cc(=O)oc3c12` has a Ratio of 0.6.

Work on `Cc1coc2cc3oc(=O)cc(CO)c3cc12` yielded a Ratio of 2.32.

For `Cc1cc2c(o1)c(C)cc1c(CO)cc(=O)n(C)c12`, the Ratio was 5.6.

Work on `Cc1cc(=O)oc2c1ccc1occc12` yielded a Ratio of 0.55.

Molecule `Cc1cc2occ(C)c2c2oc(=O)ccc12` has a Ratio of 5.3.

`Cc1cc(=O)oc2c1ccc1occ(C)c12` gave a Ratio of 5.75.

`Cc1oc2c(C)cc3c(C)cc(=O)[nH]c3c2c1C` showed a Ratio of 9.25.

In the case of `Cc1cc2c(ccc3ccc(=O)oc32)o1`, the Ratio is reported as 0.8.

`Cc1coc2ccc3ccc(=O)oc3c12` gave a Ratio of 0.81.

Work on `Cc1oc2ccc3c(C)cc(=O)[nH]c3c2c1C` yielded a Ratio of 2.59.

Work on `Cc1cc2c(ccc3c(C)cc(=O)oc32)o1` yielded a Ratio of 1.27.

For `O=c1ccc2ccc3occc3c2o1` [ANGELICIN], the Ratio was 0.55.

Work on `COc1c2ccoc2cc2oc(=O)ccc12` [BERGAPTEN] yielded a Ratio of 0.66.

For `COc1c2occc2cc2ccc(=O)oc12` [METHOXSALEN], the Ratio was 1.

With `O=c1ccc2cc3ccoc3cc2o1` [PSORALEN] the Ratio was 1.52.

Molecule `Cc1cc2cc3c(C)cc(=O)oc3c(C)c2o1` [TRIOXSALEN] has a Ratio of 27.6.

Reference: ChEMBL document CHEMBL1153790, “Scoring function for DNA-drug docking of anticancer and antiparasitic compounds based on spectral moments of 2D lattice graphs for molecular dynamics trajectories” (2009)
